Calls of active or inactive are those of the source. Rule as the data show it, for most assays here: actives have a measured Kd and inactives only a lower limit.
Assays:
[1] = biological target: T1, Serine/threonine-protein kinase ICK (Homo sapiens, UniProt Q9UPZ9)
T1 sequence (Q9UPZ9 whole entry): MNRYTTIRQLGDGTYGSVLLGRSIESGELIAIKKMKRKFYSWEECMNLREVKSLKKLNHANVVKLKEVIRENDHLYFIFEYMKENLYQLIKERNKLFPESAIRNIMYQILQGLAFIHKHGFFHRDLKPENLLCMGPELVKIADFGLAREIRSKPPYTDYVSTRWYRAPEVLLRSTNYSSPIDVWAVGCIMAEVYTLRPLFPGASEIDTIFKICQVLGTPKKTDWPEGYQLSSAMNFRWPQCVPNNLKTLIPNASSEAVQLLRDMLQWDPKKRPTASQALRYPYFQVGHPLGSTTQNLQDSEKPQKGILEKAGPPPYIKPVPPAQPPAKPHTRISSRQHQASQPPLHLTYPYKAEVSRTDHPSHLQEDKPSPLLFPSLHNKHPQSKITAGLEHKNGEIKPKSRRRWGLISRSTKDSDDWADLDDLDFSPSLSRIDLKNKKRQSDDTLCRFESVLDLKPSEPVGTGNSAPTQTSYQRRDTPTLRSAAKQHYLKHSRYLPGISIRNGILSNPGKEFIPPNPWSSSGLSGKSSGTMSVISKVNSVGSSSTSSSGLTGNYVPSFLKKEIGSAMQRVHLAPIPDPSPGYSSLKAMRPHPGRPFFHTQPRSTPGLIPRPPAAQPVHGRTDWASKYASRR

[2] = biological target: T2, Very long-chain specific acyl-CoA dehydrogenase, mitochondrial (Homo sapiens, UniProt P49748)
T2 sequence (P49748 whole entry): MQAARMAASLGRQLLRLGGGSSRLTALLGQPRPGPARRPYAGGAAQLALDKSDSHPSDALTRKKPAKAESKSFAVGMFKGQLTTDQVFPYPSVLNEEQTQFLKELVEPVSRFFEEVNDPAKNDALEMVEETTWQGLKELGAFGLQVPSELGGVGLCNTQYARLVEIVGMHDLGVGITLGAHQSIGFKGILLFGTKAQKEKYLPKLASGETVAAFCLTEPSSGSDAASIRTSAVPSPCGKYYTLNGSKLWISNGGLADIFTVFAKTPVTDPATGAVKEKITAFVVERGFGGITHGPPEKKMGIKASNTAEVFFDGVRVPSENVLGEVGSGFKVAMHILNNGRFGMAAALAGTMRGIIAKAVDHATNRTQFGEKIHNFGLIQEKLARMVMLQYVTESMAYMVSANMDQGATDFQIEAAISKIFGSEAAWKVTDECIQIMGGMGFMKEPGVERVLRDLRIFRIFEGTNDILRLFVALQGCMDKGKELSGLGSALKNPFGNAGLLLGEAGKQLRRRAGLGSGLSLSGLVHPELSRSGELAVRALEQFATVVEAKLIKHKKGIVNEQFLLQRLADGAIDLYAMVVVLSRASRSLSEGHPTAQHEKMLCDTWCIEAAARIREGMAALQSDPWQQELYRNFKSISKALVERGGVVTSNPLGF

[3] = biological target: Mitogen-activated protein kinase kinase kinase kinase 5 (Homo sapiens, UniProt Q9Y4K4)
Mitogen-activated protein kinase kinase kinase kinase 5, sequence (Q9Y4K4 whole entry): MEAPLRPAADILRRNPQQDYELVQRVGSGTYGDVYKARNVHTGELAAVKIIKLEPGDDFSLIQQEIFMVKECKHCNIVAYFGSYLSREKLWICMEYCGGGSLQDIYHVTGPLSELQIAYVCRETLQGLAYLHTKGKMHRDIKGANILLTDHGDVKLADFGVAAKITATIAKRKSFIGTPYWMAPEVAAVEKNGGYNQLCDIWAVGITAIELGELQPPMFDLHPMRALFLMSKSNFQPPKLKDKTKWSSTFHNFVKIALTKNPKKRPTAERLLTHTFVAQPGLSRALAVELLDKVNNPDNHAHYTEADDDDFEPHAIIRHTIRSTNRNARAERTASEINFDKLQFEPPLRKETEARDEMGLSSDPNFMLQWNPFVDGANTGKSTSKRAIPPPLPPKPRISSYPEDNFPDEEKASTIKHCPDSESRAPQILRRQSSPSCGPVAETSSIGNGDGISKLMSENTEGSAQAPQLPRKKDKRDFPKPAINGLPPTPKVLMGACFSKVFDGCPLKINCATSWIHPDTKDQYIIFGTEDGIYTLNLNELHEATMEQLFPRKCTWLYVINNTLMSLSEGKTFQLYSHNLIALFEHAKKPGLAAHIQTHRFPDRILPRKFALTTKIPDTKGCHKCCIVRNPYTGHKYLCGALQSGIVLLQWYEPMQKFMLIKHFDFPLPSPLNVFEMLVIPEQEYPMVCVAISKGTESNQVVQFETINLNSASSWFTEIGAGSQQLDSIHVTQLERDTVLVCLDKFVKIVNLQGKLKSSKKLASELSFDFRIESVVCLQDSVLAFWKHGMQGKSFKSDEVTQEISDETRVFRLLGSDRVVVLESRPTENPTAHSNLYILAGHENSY

[4] = biological target: MAP kinase-activated protein kinase 2 (Homo sapiens, UniProt P49137)
MAP kinase-activated protein kinase 2, sequence (P49137 whole entry, the tested form may be a part): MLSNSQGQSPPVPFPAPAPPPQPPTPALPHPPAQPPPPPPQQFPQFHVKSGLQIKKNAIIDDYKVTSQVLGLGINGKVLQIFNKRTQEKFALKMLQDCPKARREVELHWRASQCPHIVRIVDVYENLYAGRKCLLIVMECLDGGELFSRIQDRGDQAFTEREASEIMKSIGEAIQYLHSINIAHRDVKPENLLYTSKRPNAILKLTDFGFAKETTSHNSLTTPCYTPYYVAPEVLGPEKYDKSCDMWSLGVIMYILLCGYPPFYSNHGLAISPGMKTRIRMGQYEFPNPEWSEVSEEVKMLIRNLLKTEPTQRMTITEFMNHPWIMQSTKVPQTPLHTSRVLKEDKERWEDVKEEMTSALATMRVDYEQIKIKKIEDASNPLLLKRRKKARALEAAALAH

[5] = biological target: Epithelial discoidin domain-containing receptor 1 (Homo sapiens, UniProt Q08345)
Epithelial discoidin domain-containing receptor 1, sequence (Q08345 whole entry, the tested form may be a part): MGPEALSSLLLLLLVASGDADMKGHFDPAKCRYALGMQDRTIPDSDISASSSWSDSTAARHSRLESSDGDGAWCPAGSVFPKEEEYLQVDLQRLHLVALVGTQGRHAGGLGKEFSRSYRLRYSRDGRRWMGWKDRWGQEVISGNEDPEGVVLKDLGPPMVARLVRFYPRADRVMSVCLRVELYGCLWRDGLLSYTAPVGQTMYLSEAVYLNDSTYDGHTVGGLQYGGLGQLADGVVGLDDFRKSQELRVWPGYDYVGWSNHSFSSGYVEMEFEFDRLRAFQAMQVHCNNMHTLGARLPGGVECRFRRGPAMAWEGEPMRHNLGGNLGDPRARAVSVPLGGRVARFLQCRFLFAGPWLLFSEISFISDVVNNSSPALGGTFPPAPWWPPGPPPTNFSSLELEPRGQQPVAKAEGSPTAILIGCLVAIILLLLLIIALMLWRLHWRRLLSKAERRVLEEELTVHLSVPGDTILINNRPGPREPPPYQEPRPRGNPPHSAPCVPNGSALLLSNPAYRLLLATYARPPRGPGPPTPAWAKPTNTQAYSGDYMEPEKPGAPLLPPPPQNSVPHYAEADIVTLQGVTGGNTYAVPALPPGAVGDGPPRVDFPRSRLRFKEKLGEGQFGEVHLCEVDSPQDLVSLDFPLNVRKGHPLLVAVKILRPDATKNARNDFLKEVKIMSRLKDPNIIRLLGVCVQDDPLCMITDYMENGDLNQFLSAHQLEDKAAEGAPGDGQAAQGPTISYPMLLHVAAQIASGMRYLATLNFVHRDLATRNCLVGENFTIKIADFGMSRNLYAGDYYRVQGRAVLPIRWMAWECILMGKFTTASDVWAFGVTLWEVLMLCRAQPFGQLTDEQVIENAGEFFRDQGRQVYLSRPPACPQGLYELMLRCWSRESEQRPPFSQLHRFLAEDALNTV

Deoxycytidine kinase = Deoxycytidine kinase (Homo sapiens, UniProt P27707)
Deoxycytidine kinase, sequence (P27707 whole entry, canonical isoform): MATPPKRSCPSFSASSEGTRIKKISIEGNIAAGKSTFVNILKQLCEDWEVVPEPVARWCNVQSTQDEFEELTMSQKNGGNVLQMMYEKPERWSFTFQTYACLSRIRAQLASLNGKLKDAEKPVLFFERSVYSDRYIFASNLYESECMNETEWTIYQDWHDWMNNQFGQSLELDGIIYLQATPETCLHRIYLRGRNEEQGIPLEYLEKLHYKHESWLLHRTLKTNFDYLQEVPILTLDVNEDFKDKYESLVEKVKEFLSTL

[6] = biological target: T3, Phosphorylase b kinase gamma catalytic chain, liver/testis isoform (Homo sapiens, UniProt P15735)
T3 sequence (P15735 whole entry): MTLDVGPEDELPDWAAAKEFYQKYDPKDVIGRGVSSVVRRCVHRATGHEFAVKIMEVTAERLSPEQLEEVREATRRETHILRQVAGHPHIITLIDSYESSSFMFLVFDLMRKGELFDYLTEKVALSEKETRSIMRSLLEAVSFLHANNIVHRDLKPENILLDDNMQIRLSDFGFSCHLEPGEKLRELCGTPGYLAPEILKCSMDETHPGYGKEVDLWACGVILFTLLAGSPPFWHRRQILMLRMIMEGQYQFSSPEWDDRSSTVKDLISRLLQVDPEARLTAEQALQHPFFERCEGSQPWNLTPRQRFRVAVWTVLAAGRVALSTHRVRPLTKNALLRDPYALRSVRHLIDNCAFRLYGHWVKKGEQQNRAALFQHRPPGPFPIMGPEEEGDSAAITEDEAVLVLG

[7] = biological target: T4, Peroxisomal acyl-coenzyme A oxidase 1 (Homo sapiens, UniProt Q15067)
T4 sequence (Q15067 whole entry): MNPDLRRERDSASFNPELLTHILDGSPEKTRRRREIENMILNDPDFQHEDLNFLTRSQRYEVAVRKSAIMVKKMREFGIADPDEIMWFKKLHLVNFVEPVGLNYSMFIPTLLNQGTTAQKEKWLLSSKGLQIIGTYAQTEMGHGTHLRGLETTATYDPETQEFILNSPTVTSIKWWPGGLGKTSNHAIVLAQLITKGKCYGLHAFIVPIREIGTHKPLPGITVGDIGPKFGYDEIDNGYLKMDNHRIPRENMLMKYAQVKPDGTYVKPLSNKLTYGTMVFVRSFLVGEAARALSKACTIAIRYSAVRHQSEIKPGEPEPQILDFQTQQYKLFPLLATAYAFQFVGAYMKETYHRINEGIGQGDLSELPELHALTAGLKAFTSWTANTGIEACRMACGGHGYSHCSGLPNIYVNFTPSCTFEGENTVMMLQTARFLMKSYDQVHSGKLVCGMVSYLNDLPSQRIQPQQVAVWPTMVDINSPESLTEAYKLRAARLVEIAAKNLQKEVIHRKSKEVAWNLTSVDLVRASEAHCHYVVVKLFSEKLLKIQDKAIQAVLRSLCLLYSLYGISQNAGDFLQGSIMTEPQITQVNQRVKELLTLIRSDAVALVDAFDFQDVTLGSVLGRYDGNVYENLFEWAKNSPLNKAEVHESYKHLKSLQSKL
Also: in the data inactive means no Kd found up to 30 µM.

| SMILES | Kd [1] | Kd [2] | Kd [3] | Kd [4] | Kd [5] | Kd (Deoxycytidine kinase) | Kd [6] | Kd [7] |
| --- | --- | --- | --- | --- | --- | --- | --- | --- |
| Cn1cc(-c2[nH]c3cc(NC(=O)[C@H](N)C4CCCCC4)cc4c3c2C=NNC4=O)cn1 | > 30 µM (inactive) | > 30 µM (inactive) | 2.64 µM (active) | > 30 µM (inactive) | > 30 µM (inactive) | > 30 µM (inactive) | > 30 µM (inactive) | > 30 µM (inactive) |
| Cc1cc(Nc2nc(N[C@@H](C)c3ncc(F)cn3)ncc2Cl)n[nH]1 [AZD-1480] | > 30 µM (inactive) | > 30 µM (inactive) | > 30 µM (inactive) | > 30 µM (inactive) | > 30 µM (inactive) | > 30 µM (inactive) | > 30 µM (inactive) | > 30 µM (inactive) |
| C[C@]1(O)C[C@@H](c2nc(-c3ccc4ccc(-c5ccccc5)nc4c3)c3c(N)nccn32)C1 [LINSITINIB] | > 30 µM (inactive) | > 30 µM (inactive) | 0.614 µM (active) |  | > 30 µM (inactive) | > 30 µM (inactive) |  | > 30 µM (inactive) |
| c1cc(OCCN2CCCCC2)cc(-c2n[nH]c3ccc(-c4nc[nH]n4)cc23)c1 [CC-401] | > 30 µM (inactive) |  | > 30 µM (inactive) | > 30 µM (inactive) | > 30 µM (inactive) | > 30 µM (inactive) | > 30 µM (inactive) | > 30 µM (inactive) |
| CCOc1ccn(-c2ccc(F)cc2)c(=O)c1C(=O)Nc1ccc(Oc2ccnc(N)c2Cl)c(F)c1 [BMS-777607] | > 30 µM (inactive) | > 30 µM (inactive) | > 30 µM (inactive) | > 30 µM (inactive) | 0.039 µM (active) | > 30 µM (inactive) | > 30 µM (inactive) |  |
| C=CCN(/C=C1/C(=O)O[C@H](COC)[C@@]2(C)C1=C(O)C(=O)C1=C2[C@H](OC(C)=O)C[C@]2(C)C(=O)CC[C@@H]12)CC=C [SONOLISIB] | > 30 µM (inactive) | > 30 µM (inactive) | > 30 µM (inactive) | > 30 µM (inactive) | > 30 µM (inactive) | > 30 µM (inactive) | > 30 µM (inactive) |  |

Other lines, results leading:

| Kd [1] | Kd [2] | Kd [3] | Kd [4] | Kd [5] | Kd (Deoxycytidine kinase) | Kd [6] | Kd [7] | SMILES |
| --- | --- | --- | --- | --- | --- | --- | --- | --- |
| > 30 µM (inactive) | > 30 µM (inactive) | > 30 µM (inactive) | 0.0003 µM (active) | > 30 µM (inactive) | > 30 µM (inactive) | > 30 µM (inactive) | > 30 µM (inactive) | NC(=O)c1ccc(N(C(N)=O)c2c(F)cccc2F)nc1-c1ccc(F)cc1F [VX-702] |
| > 30 µM (inactive) | > 30 µM (inactive) | > 30 µM (inactive) | > 30 µM (inactive) | > 30 µM (inactive) | > 30 µM (inactive) | > 30 µM (inactive) | > 30 µM (inactive) | COc1cc2ncnc(Nc3ccc(O)cc3)c2cc1OC [WHI-P131] |
| > 30 µM (inactive) | > 30 µM (inactive) | > 30 µM (inactive) | > 30 µM (inactive) | > 30 µM (inactive) | > 30 µM (inactive) | > 30 µM (inactive) | > 30 µM (inactive) | CNC(=O)c1cc(COc2nnc(Nc3ccc(Cl)cc3)c3ccoc23)ccn1 [TELATINIB] |
| > 30 µM (inactive) | > 30 µM (inactive) | > 30 µM (inactive) |  | > 30 µM (inactive) | > 30 µM (inactive) | > 30 µM (inactive) | > 30 µM (inactive) | O=S(=O)(c1cccc2c(O)nccc12)N1CCCNCC1 [HYDROXYFASUDIL] |
| > 30 µM (inactive) | > 30 µM (inactive) | > 30 µM (inactive) | > 30 µM (inactive) |  | > 30 µM (inactive) | > 30 µM (inactive) | > 30 µM (inactive) | CNC(=O)c1cccc(-c2ccc3c(N4CCOC[C@@H]4C)nc(N4CCOC[C@@H]4C)nc3n2)c1 [VISTUSERTIB] |
| 0.884 µM (active) | > 30 µM (inactive) | > 30 µM (inactive) | 5.3 µM (active) | > 30 µM (inactive) | > 30 µM (inactive) | 3.5 µM (active) |  | O=C(O)c1ccc2c(c1)nc(Nc1cccc(Cl)c1)c1ccncc12 [SILMITASERTIB] |

— ChEMBL document CHEMBL3991601, “The target landscape of clinical kinase drugs” (Science, 2017)
